The values below come from patent publication US12134610B2, “Somatostatin subtype-2 receptor (SST2R) targeted therapeutics and uses thereof” (priority 2022, dated 2024).

The structures appear in SMILES notation. Starred links: 1 amine or outer side, 2 acyl side, 3 side chain; linkers in the order of their positions; H or OH if unused. Non-standard residues stand in square brackets, D forms with d. Residues, ends and D or L forms follow the SMILES beside them. *: point of attachment. PABC(3-O-βDGlc) = O=C(OCc1ccc(N[*:1])c(O[C@@H]2O[C@H](CO)[C@@H](O)[C@H](O)[C@H]2O)c1)[*:2]; X1 = Cc1cc(F)cc(-c2cnc(NCCNC(=O)CCOCCC(=O)*)c(-c3nc4ccc(Cl)cc4[nH]3)c2N2CCC(N)CC2)c1; Dolaproine = CO[C@@H]([C@@H]1CCCN1)[C@@H](C)C(=O)O; Dil = CC[C@H](C)[C@H](NC)[C@@H](CC(=O)O)OC; PABC = O=C(OCc1ccc(N[*:1])cc1)[*:2]; X2 = C[C@@H](N*)[C@@H](O)c1ccccc1; Cya = N[C@@H](CS(=O)(=O)O)C(=O)O; dCya = N[C@H](CS(=O)(=O)O)C(=O)O; Cit = NC(=O)NCCC[C@H](N)C(=O)O; NMeV = CN[C@H](C(=O)O)C(C)C

What all share (format): cell-based
Test [1] concerns the target T1, human somatostatin receptor subtype 2 (Homo sapiens, UniProt P30874).
T1 construct: expressed in transfected cells
The experiment in a line: Functional cAMP assay for SSTR2 agonists (HTRF) in CHO-K1 cells. As to conditions: CHO-K1 cells stably expressing human SST2, 20 min; read-out: hSST2 cAMP Avg EC50. Put shortly: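 Agonism scored as loss of NKH477 (1.6 μM)-driven cAMP, with IBMX present, after 20 min, 37° C. exposure of stably transfected CHO-K1 cells to compound dilutions (typically 0-10,000 nM). Lysates read by time-resolved FRET; cAMP interpolated from standard curve and EC50 derived.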

The next test deals with T2, SST2 (Homo sapiens, UniProt P30874).
T2 construct: host or cells: PathHunter CHO-K1 SST2 cells
T2 sequence (P30874 whole entry): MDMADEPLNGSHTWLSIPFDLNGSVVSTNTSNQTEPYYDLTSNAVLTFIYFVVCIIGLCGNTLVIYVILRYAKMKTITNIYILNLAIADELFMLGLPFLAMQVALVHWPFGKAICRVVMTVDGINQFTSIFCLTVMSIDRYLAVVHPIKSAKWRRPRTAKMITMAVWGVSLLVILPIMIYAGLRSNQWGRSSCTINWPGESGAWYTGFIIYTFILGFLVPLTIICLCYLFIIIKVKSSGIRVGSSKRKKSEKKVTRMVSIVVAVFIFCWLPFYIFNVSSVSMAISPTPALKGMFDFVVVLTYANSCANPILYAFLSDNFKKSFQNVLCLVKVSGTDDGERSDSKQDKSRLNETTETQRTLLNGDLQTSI
The experiment in a line: PathHunter CHO-K1 SST2 internalization assay. As to conditions: PathHunter CHO-K1 SST2, 90 min; read-out: Internalization EC50. Put shortly:
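IC50 comes from four-parameter curves on background-corrected duplicates of Beta-Glo luminescence, read after 60 min at room temperature in the dark. Before that, CHO-K1 SST2 internalization cells (48 h post-seeding) received SMDC as eleven threefold dilutions, 10 uM highest final, for 90 min at 37 C.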

In test [2] the test system is NCI-H524 (ATCC) human small cell lung cancer cells. As to conditions: 2 h. Put shortly:
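CellTiter-Glo luminescence after a 2 h SMDC pulse (top dose 1 uM, 2-fold dilutions, 11 points), medium wash, then 70 h recovery. Cells were seeded at 5,000/well and dosed 24 h later. % inhibition vs control gave IC50 via four-parameter fit.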

T1 sequence (P30874 whole entry): as above

For orientation: EC50 means the concentration at which the effect is half-maximal. Consider `CC[C@H](C)[C@@H]([C@@H](CC(=O)N1CCC[C@H]1[C@H](OC)[C@@H](C)C(=O)N[C@H](C)[C@@H](O)c1ccccc1)OC)N(C)C(=O)[C@@H](NC(=O)[C@H](C(C)C)N(C)C(=O)OCc1ccc(NC(=O)[C@H](CCCNC(N)=O)NC(=O)[C@@H](NC(=O)CCOCCNC(=O)CN2CCN(CC(=O)O)CCN(CC(=O)NCCOCCOCCOCCOCCC(=O)NCCNc3ncc(-c4cc(C)cc(F)c4)c(N4CCC(N)CC4)c3-c3nc4ccc(Cl)cc4[nH]3)CC2)C(C)C)cc1)C(C)C` [Compound 43], for which the EC50 in test [1] is 0.29 nM; on SST2, 18.1 nM; in test [2], 82.6 nM.
Consider `CC[C@H](C)[C@@H]([C@@H](CC(=O)N1CCC[C@H]1[C@H](OC)[C@@H](C)C(=O)N[C@H](C)[C@@H](O)c1ccccc1)OC)N(C)C(=O)[C@@H](NC(=O)[C@H](C(C)C)N(C)C(=O)OCc1ccc(NC(=O)[C@H](CCCNC(N)=O)NC(=O)[C@@H](NC(=O)[C@@H](CS(=O)(=O)O)NC(=O)CCOCCC(=O)NCCNc2ncc(-c3cc(C)cc(F)c3)c(N3CCC(N)CC3)c2-c2nc3ccc(Cl)cc3[nH]2)C(C)C)cc1)C(C)C` [Compound 104] (X1-[dCya]V[Cit][PABC][NMeV]V[Dil][Dolaproine]-X2), for which the EC50 in test [1] was 0.062 nM; at SST2 it was 2.8 nM; in test [2], 24 nM.
Turning to `COc1cc2cc(c1Cl)N(C)C(=O)CC(OC(=O)[C@@H](C)N(C)C(=O)CCSC1CC(=O)N(CC3CCC(C(=O)NCCNc4ncc(-c5cc(C)cc(F)c5)c(N5CCC(N)CC5)c4-c4nc5ccc(Cl)cc5[nH]4)CC3)C1=O)[C@]1(C)OC1[C@@H](C)C1C[C@@](O)(NC(=O)O1)[C@H](OC)/C=C/C=C(\C)C2` (stereo partly drawn) [Compound 6], the results for the EC50 (in test [1]; on SST2; in test [2]) were 0.22 nM, 5.3 nM and 11.7 nM, respectively.
In the same order, the values of `COc1cc2cc(c1Cl)N(C)C(=O)CC(OC(=O)[C@@H](C)N(C)C(=O)CCSSCCOCCOCCOCCOCCOCCOCCOCCOCCC(=O)NCCNc1ncc(-c3cc(C)cc(F)c3)c(N3CCC(N)CC3)c1-c1nc3ccc(Cl)cc3[nH]1)[C@]1(C)OC1[C@@H](C)C1C[C@@](O)(NC(=O)O1)[C@H](OC)/C=C/C=C(\C)C2` (stereo partly drawn) [Compound 22] are 0.36 nM, 26 nM and 27.1 nM.
As for `CCC(C)C(C(CC(=O)N1CCCC1C(OC)C(C)C(=O)NC(C)C(O)c1ccccc1)OC)N(C)C(=O)C(NC(=O)C(C(C)C)N(C)C(=O)OCc1ccc(NC(=O)[C@H](CCCNC(N)=O)NC(=O)[C@@H](NC(=O)CCOCCOCCOCCOCCOCCOCCOCCOCCC(=O)NCCNc2ncc(-c3cc(C)cc(F)c3)c(N3CCC(N)CC3)c2-c2nc3ccc(Cl)cc3[nH]2)C(C)C)cc1)C(C)C` (stereo in doubt) [Compound 27], the EC50 in test [1] came to 0.2 nM; at SST2, 27.8 nM; in test [2], 65.5 nM.
In the same order, the values of `CCC(C)C(C(CC(=O)N1CCCC1C(OC)C(C)C(=O)NC(C)C(O)c1ccccc1)OC)N(C)C(=O)C(NC(=O)C(C(C)C)N(C)C(=O)OCc1ccc(NC(=O)[C@H](CCCNC(N)=O)NC(=O)[C@@H](NC(=O)CCOCCOCCOCCOCCOCCOCCC(=O)NCCNc2ncc(-c3cc(C)cc(F)c3)c(N3CCC(N)CC3)c2-c2nc3ccc(Cl)cc3[nH]2)C(C)C)cc1)C(C)C` (stereo in doubt) [Compound 40] are 0.36 nM, 26.4 nM and 46.5 nM.
In the same order, the values of `CC[C@H](C)[C@@H]([C@@H](CC(=O)N1CCC[C@H]1[C@H](OC)[C@@H](C)C(=O)N[C@@H](Cc1ccccc1)C(=O)O)OC)N(C)C(=O)[C@@H](NC(=O)[C@H](C(C)C)N(C)C(=O)CCOCCOCCOCCOCCC(=O)NCCNc1ncc(-c2cc(C)cc(F)c2)c(N2CCC(N)CC2)c1-c1nc2ccc(Cl)cc2[nH]1)C(C)C` [Compound 11] are 0.086 nM, 13.4 nM and 105 nM.
In the same order, the values of `CC[C@H](C)[C@@H]([C@@H](CC(=O)N1CCC[C@H]1[C@H](OC)[C@@H](C)C(=O)N[C@H](C)[C@@H](O)c1ccccc1)OC)N(C)C(=O)[C@@H](NC(=O)[C@H](C(C)C)N(C)C(=O)OCc1ccc(NC(=O)[C@H](C)NC(=O)[C@@H](NC(=O)CCOCCC(=O)NCCNc2ncc(-c3cc(C)cc(F)c3)c(N3CCC(N)CC3)c2-c2nc3ccc(Cl)cc3[nH]2)C(C)C)c(O[C@@H]2O[C@H](CO)[C@@H](O)[C@H](O)[C@H]2O)c1)C(C)C` [Compound 131] are 0.13 nM, 5.2 nM and 4 nM.
As to `CC[C@H](C)[C@@H]([C@@H](CC(=O)N1CCC[C@H]1[C@H](OC)[C@@H](C)C(=O)N[C@H](C)[C@@H](O)c1ccccc1)OC)N(C)C(=O)[C@@H](NC(=O)[C@H](C(C)C)N(C)C(=O)OCc1ccc(NC(=O)[C@H](CCCNC(N)=O)NC(=O)[C@@H](NC(=O)CCOCCNCCNc2ncc(-c3cc(C)cc(F)c3)c(N3CCC(N)CC3)c2-c2nc3ccc(Cl)cc3[nH]2)C(C)C)c(O[C@@H]2O[C@H](C(=O)O)[C@@H](O)[C@H](O)[C@H]2O)c1)C(C)C` [Compound 128], the results for the EC50 (in test [1]; on SST2; in test [2]) were 0.18 nM, 8.7 nM and 31 nM, respectively.
In the same order, the values of `CC[C@H](C)[C@@H]([C@@H](CC(=O)N1CCC[C@H]1[C@H](OC)[C@@H](C)C(=O)N[C@H](C)[C@@H](O)c1ccccc1)OC)N(C)C(=O)[C@@H](NC(=O)[C@H](C(C)C)N(C)C(=O)OCc1ccc(NC(=O)[C@H](CCCNC(N)=O)NC(=O)[C@@H](NC(=O)[C@H](CS(=O)(=O)O)NC(=O)[C@@H](CCC(=O)O)NC(=O)CCOCCC(=O)NCCNc2ncc(-c3cc(C)cc(F)c3)c(N3CCC(N)CC3)c2-c2nc3ccc(Cl)cc3[nH]2)C(C)C)cc1)C(C)C` [Compound 106] (X1-[dE][Cya]V[Cit][PABC][NMeV]V[Dil][Dolaproine]-X2) are 0.25 nM, 16 nM and 460 nM.
In the same order, the values of `CC[C@H](C)[C@@H]([C@@H](CC(=O)N1CCC[C@H]1[C@H](OC)[C@@H](C)C(=O)N[C@H](C)[C@@H](O)c1ccccc1)OC)N(C)C(=O)[C@@H](NC(=O)[C@H](C(C)C)N(C)C(=O)OCc1ccc(NC(=O)[C@H](CCCNC(N)=O)NC(=O)[C@@H](NC(=O)CCCC(=O)N(C)CC(=O)NCCNc2ncc(-c3cc(C)cc(F)c3)c(N3CCC(N)CC3)c2-c2nc3ccc(Cl)cc3[nH]2)C(C)C)c(O[C@@H]2O[C@H](C(=O)O)[C@@H](O)[C@H](O)[C@H]2O)c1)C(C)C` [Compound 141] are 0.22 nM, 2.3 nM and 11 nM.
In the same order, the values of `CCC(C)C(C(CC(=O)N1CCCC1C(OC)C(C)C(=O)NC(C)C(O)c1ccccc1)OC)N(C)C(=O)C(NC(=O)C(C(C)C)N(C)C(=O)OCc1ccc(NC(=O)[C@H](CCCNC(N)=O)NC(=O)[C@@H](NC(=O)CCOCCOCCOCCOCCC(=O)NCCNc2ncc(-c3cc(C)cc(F)c3)c(N3CCC(N)CC3)c2-c2nc3ccc(Cl)cc3[nH]2)C(C)C)cc1)C(C)C` (stereo in doubt) [Compound 25] are 0.34 nM, 27 nM and 25 nM.
Turning to `CC[C@H](C)[C@@H]([C@@H](CC(=O)N1CCC[C@H]1[C@H](OC)[C@@H](C)C(=O)N[C@H](C)[C@@H](O)c1ccccc1)OC)N(C)C(=O)[C@@H](NC(=O)[C@H](C(C)C)N(C)C(=O)OCc1ccc(NC(=O)[C@H](CCCNC(N)=O)NC(=O)[C@@H](NC(=O)[C@H](CCC(N)=O)NC(=O)CCOCCC(=O)NCCNc2ncc(-c3cc(C)cc(F)c3)c(N3CCC(N)CC3)c2-c2nc3ccc(Cl)cc3[nH]2)C(C)C)c(O[C@@H]2O[C@H](CO)[C@@H](O)[C@H](O)[C@H]2O)c1)C(C)C` [Compound 136] (X1-QV[Cit][PABC(3-O-βDGlc)][NMeV]V[Dil][Dolaproine]-X2), the EC50 in test [1] was found to be 0.23 nM; at SST2 it was 6.7 nM; in test [2], 5.8 nM.
In the same order, the values of `CC[C@H](C)[C@@H]([C@@H](CC(=O)N1CCC[C@H]1[C@H](OC)[C@@H](C)C(=O)N[C@H](C)[C@@H](O)c1ccccc1)OC)N(C)C(=O)[C@@H](NC(=O)[C@H](C(C)C)N(C)C(=O)OCc1ccc(NC(=O)[C@H](CCCNC(N)=O)NC(=O)[C@@H](NC(=O)CCOCCC(=O)NCCNc2ncc(-c3cc(C)cc(F)c3)c(N3CCC(N)CC3)c2-c2nc3ccc(Cl)cc3[nH]2)C(C)C)cc1C(=O)NCCN)C(C)C` [Compound 82] are 0.31 nM, 6 nM and 0.79 nM.
Take `CC[C@H](C)[C@@H]([C@@H](CC(=O)N1CCC[C@H]1[C@H](OC)[C@@H](C)C(=O)N[C@H](C)[C@@H](O)c1ccccc1)OC)N(C)C(=O)[C@@H](NC(=O)[C@H](C(C)C)N(C)C(=O)OCc1ccc(NC(=O)[C@H](CCCNC(N)=O)NC(=O)[C@@H](NC(=O)CCCC(=O)N(C)CC(=O)N(C)CC(=O)N(C)CC(=O)N(C)CC(=O)N(C)CC(=O)NCCNc2ncc(-c3cc(C)cc(F)c3)c(N3CCC(N)CC3)c2-c2nc3ccc(Cl)cc3[nH]2)C(C)C)cc1)C(C)C` [Compound 97]: the concentration giving a half-maximal response (EC50) was determined as 0.3 nM in test [1], 4.5 nM at SST2 and 35 nM in test [2].
In the same order, the values of `CC[C@H](C)[C@@H]([C@@H](CC(=O)N1CCC[C@H]1[C@H](OC)[C@@H](C)C(=O)N[C@H](C)[C@@H](O)c1ccccc1)OC)N(C)C(=O)[C@@H](NC(=O)[C@H](C(C)C)N(C)C(=O)OCc1ccc(NC(=O)[C@H](C)NC(=O)[C@@H](NC(=O)CCOCCNCCNc2ncc(-c3cc(C)cc(F)c3)c(N3CCC(N)CC3)c2-c2nc3ccc(Cl)cc3[nH]2)C(C)C)cc1C(=O)NCCN)C(C)C` [Compound 89] are 0.71 nM, 66 nM and 60 nM.
